Experimental data as given in ChEMBL document CHEMBL1201862, “PubChem BioAssay data set” (2004).
Calls of active or inactive are those of the source.

What was measured:
[1] = target: Cytochrome P450 2C19 (Homo sapiens, UniProt P33261); assay: Cytochrome panel assay with activity outcomes. Panel member name: p450-cyp2c19 Compounds with AC50 equal or less than 10 uM are considered active; type: functional
[2] = target: Cytochrome P450 2C9 (Homo sapiens, UniProt P11712)
[3] = inhibitors of intracellular T. cruzi replication, confirmation, NIH3T3 host cells, beta-gal luminescence (AID 2044); type: functional, cell-based;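 note: intracellular parasites grown in NIH/3T3 mouse fibroblasts as host cells; luminescent beta-galactosidase reporter signal from transgenic T. cruzi replicating inside host cells; inhibitors lower the luminescence signal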
[4] = cytotoxicity toward NIH3T3 fibroblasts, dose response, counter-screen, cell-based, ATP luminescence, mouse fibroblasts (AID 2010); type: functional;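 note: cells exposed to compound for about 90 hours before reading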
[5] = HEp-2 cell cytotoxicity, dose response, cytotoxicity control for RSV inhibitor project, HTS (AID 2410); type: functional; details: human respiratory syncytial virus
[6] = system: Streptococcus sp. 'group A'; assay: growth inhibition of control SK(-) GAS strain, dose response, counter-screen for streptokinase expression inhibitor project, luminescence, kanamycin, BacTiterGlo, confirmation (AID 1900); type: functional, organism-based
[7] = target: T1, Streptokinase A (Streptococcus pyogenes serotype M1, UniProt P10520); assay: S. pyogenes streptokinase expression inhibitors, potency, dose response, plasminogen activation absorbance, OD405 (AID 1914); type: functional, Streptococcus pyogenes M1 GAS;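 note: secreted streptokinase activity via plasminogen activation per viability signal from cell pellet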
T1 sequence (P10520 whole entry): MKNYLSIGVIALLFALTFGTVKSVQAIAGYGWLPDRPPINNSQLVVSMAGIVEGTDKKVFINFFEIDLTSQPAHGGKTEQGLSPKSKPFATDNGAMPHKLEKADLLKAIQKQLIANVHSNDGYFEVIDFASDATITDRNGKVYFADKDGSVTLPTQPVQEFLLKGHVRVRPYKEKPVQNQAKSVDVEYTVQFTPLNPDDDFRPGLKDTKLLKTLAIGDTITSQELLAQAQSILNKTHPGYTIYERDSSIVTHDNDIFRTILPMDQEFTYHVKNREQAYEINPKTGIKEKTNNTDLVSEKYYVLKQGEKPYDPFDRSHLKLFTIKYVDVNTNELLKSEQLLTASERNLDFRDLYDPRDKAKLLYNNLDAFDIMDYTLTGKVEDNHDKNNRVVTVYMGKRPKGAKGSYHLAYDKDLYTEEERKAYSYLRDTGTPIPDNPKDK

[8] = system: Streptococcus; assay: Group A Streptococcus viability loss, dose response, counter-screen for streptokinase expression inhibitor project, luminescence, BacTiterGlo (AID 1915); type: functional, organism-based;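 note: potency for reduction of bacterial viability or growth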
[9] = target: Cytochrome P450 3A4 (Homo sapiens, UniProt P08684);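 note: CYP3A4 tested as one member of a cytochrome P450 panel screen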
Cytochrome P450 3A4, sequence (P08684 whole entry): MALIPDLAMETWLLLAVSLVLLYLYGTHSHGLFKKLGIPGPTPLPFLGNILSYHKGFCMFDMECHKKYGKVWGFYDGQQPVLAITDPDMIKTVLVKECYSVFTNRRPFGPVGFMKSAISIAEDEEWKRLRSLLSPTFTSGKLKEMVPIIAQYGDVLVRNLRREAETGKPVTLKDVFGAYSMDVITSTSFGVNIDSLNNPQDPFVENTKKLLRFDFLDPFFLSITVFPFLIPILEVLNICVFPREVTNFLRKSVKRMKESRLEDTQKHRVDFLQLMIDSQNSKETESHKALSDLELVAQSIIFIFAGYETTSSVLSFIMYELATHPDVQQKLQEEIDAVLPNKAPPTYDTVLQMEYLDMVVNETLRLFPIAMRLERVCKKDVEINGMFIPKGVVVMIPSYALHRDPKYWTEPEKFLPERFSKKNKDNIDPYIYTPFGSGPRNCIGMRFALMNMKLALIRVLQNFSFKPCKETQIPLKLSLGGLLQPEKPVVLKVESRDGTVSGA

Cytochrome P450 2C9, sequence (P11712 whole entry): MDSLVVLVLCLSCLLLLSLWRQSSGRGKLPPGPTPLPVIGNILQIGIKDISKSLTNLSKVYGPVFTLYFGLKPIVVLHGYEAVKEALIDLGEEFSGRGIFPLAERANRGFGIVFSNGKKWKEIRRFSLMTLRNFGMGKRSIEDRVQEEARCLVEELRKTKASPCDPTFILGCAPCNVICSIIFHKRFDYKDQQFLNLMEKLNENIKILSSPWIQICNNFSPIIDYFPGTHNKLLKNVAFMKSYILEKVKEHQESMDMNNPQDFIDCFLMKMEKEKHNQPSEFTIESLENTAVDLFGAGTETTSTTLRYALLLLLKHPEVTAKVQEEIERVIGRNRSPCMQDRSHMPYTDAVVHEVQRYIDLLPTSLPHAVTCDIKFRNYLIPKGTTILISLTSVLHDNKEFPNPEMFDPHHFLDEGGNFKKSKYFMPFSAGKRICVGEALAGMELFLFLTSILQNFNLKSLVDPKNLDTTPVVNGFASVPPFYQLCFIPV
Cytochrome P450 2C19, sequence (P33261 whole entry): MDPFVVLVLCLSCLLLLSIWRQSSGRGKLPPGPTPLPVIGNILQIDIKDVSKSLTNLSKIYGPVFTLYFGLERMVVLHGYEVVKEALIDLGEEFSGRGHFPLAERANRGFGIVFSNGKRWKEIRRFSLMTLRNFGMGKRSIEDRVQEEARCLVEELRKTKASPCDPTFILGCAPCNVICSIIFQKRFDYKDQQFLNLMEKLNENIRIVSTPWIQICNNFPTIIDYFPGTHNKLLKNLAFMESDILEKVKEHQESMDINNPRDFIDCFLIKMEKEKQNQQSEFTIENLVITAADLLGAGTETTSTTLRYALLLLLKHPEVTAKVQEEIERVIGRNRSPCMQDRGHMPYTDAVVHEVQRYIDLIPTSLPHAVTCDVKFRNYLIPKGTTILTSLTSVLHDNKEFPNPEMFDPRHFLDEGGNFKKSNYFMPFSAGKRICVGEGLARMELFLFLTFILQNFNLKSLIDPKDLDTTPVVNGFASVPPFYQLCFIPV

## COc1ccc(Oc2ncc3nc(C)c(=O)n(C[C@H]4CCCO4)c3n2)cc1
[1]; read-out: AC50
  AC50: 25.1 µM (inconclusive)
[2]
  AC50: 39.8 µM (inconclusive)

## Cc1ccc(OC(=O)c2cccc(C(=O)Oc3ccc(C)cc3)n2)cc1
[1]
  AC50: inconclusive

## CC(C)NCC(O)COCCOc1ccc(Br)cc1 (configuration not stated)
[3]
  EC50: 1.1 µM (active)
[4]
  EC50: > 30 µM (not active)

## Cc1ccc(C2c3c(C)nn(-c4ccc([N+](=O)[O-])cc4)c3N=C3C(=O)Nc4ccccc4N32)cc1 (configuration not stated)
[3]
  EC50: 1.45 µM (active)
[4]
  EC50: > 60 µM (not active)

## COc1cccc(-c2nc(NC3CC3)c3ccccc3n2)c1
[1]; read-out: AC50
  AC50: 10 µM (inconclusive)

## O=C(c1ccco1)N1CCC[C@@]2(CCN(C(c3ccccc3)c3ccccc3)C2)C1
[2]
  AC50: 31.6 µM (inconclusive)

## Cc1c(C(O)CN2CCN(Cc3ccc4c(c3)OCO4)CC2)c2ccccc2n1C (configuration not stated)
[3]
  EC50: 2.47 µM (active)
[4]
  EC50: > 60 µM (not active)

## CC(=O)c1coc2c1cc(O)c1ccccc12
[5]
  CC50: > 50 µM (active)

## CN(CCOc1ccccc1)C(=O)c1cc([N+](=O)[O-])cc([N+](=O)[O-])c1
[3]
  EC50: 0.7 µM (active)
[4]
  EC50: > 30 µM (not active)

## CCc1nc2ccccc2nc1O
[5]
  CC50: 28.8 µM (active)

## CCN1C(=O)N[C@@H](CCc2ccccc2)C(C(=O)OC)=C1C
[5]
  CC50: 29.9 µM (active)

## O=C(Cn1ccc(C(F)(F)F)n1)N=Nc1c(O)[nH]c2ccc(Br)cc12
[5]
  CC50: > 50 µM (active)

## Cc1cccc(CSc2ncnc3c2cnn3Cc2ccccc2)c1
[6]
  EC50: 23 µM (active)
[7]
  EC50: > 150 µM (not active)
[8]
  EC50: > 150 µM (not active)

## CC1N(C)c2cc(NC(=O)c3ccco3)c(P(=O)(Nc3ccc([N+](=O)[O-])cc3)N3CCOCC3)cc2C1(C)C (configuration not stated)
[5]
  CC50: 18 µM (active)

## COc1ncc2nc(-c3cn(C)c4ccccc34)c(=O)n(Cc3ccc(F)cc3)c2n1
[1]; read-out: AC50
  AC50: 15.8 µM (inconclusive)

## C=CCCN(C1CCCC1)S(=O)(=O)c1ccccc1Br
[5]
  CC50: > 50 µM (active)

## C/C(CCC(=O)OC[C@@H]1O[C@H](C#Cc2ccccc2)C=C[C@@H]1Oc1ccc(C)cc1)=N/O[C@@H](C)CN1CCCCc2nc(C)c(C)cc21
[1]; read-out: AC50
  AC50: 1.26 µM (inconclusive)

## O=C(c1ccccc1Cl)N1CCN(S(=O)(=O)c2cccs2)CC1
[6]
  EC50: > 150 µM (not active)
[7]
  EC50: > 150 µM (not active)
[8]
  EC50: > 150 µM (not active)

## CCC1CCCCN1c1nc2c(C=O)c(C)nn2c2ccccc12 (configuration not stated)
[5]
  CC50: 20.5 µM (active)

## CCC/C=C(\CCC)C(NS(=O)(=O)CC12CCC(CC1=O)C2(C)C)c1ccc(C(=O)OC)cc1 (configuration not stated)
[1]; read-out: AC50
  AC50: 25.1 µM (inconclusive)

## CCOC(=O)c1c(C)[nH]c(C(=O)COC(=O)c2cc(C)oc2C)c1C
[5]
  CC50: > 50 µM (active)

## O=C(CCCN1C(=O)/C(=C\c2cccs2)SC1=S)Nc1cc([N+](=O)[O-])ccc1O
[6]
  EC50: 4.29 µM (active)
[7]
  EC50: 25.3 µM (active)
[8]
  EC50: > 150 µM (not active)

## CN(C(=S)NC(=O)c1ccccc1)C1CCCCC1
[6]
  EC50: > 150 µM (not active)
[7]
  EC50: > 150 µM (not active)
[8]
  EC50: > 150 µM (not active)

## O=C(C(Cc1ccccc1)N1C(=O)C2C3CCC(C3)C2C1=O)N1CCCCC1 (configuration not stated)
[1]; read-out: AC50
  AC50: 7.08 µM (inconclusive)

## Fc1ccc(N2CCN(C3=Nc4cccc5cccc3c45)CC2)cc1
[3]
  EC50: 1.74 µM (active)
[4]
  EC50: > 30 µM (not active)

## CCn1c(SCC(=O)OC)nnc1C1CCCCC1
[1]; read-out: AC50
  AC50: 14.1 µM (inconclusive)

## O=C(NCC1CCCO1)c1cc2c3ccccc3nc-2c(-c2cccc(Cl)c2)[nH]1 (configuration not stated)
[6]
  EC50: 4.12 µM (active)
[7]
  EC50: > 150 µM (not active)
[8]
  EC50: 25.3 µM (active)

## CCN1CCN(S(=O)(=O)c2ccc(Cl)c(C(=O)Nc3nnc(CC(C)C)s3)c2)CC1
[1]; read-out: AC50
  AC50: 39.8 µM (inconclusive)
[2]
  AC50: 25.1 µM (inconclusive)

## CCc1c(C)nc(N)n2c(SCC(=O)Nc3ccccc3)nnc12
[1]; read-out: AC50
  AC50: 22.4 µM (inconclusive)

## Cc1ccc2nc(O)c(COC(=O)C3CCCCC3)cc2c1
[5]
  CC50: > 50 µM (active)

## CN(C(=S)NC(=O)c1ccccc1Br)C1CCCCC1
[9]
  AC50: 2.51 µM (inconclusive)

## CCn1cc(CN2CCCC(C(=O)c3ccc(-c4ccccc4)cc3)C2)cn1 (configuration not stated)
[3]
  EC50: 0.222 µM (active)
[4]
  EC50: 16.7 µM (active)

## FC(F)Sc1ccc(NC(S)=NC(c2ccccc2)c2ccccc2)cc1
[6]
  EC50: 2.4 µM (active)
[8]
  EC50: 3.15 µM (active)

## O=S(=O)(Nc1cccc2c1CCCC2)c1ccc(Cl)cc1
[6]
  EC50: 4.86 µM (active)
[7]
  EC50: 97.8 µM (inconclusive)
[8]
  EC50: > 150 µM (not active)

## O=C(/C=C/c1cc[n+](CC(=O)c2ccc3cccc4c3c2CC4)cc1)c1ccc2cccc3c2c1CC3
[3]
  EC50: 0.146 µM (active)
[4]
  EC50: > 60 µM (not active)

## COc1ccc(C2(C)NC(=O)N(CC(=O)Nc3ccc(-c4nc5ccc(C)cc5s4)cc3)C2=O)cc1 (configuration not stated)
[5]
  CC50: 29.8 µM (active)

## CN(C)CCCNc1ncc(C(F)(F)F)cc1Cl
[3]
  EC50: 0.659 µM (active)
[4]
  EC50: > 30 µM (not active)

## O=C1NC(=O)N(CCc2ccccc2)C(=O)/C1=C(O)/C=C/c1c[nH]c2ccccc12
[6]
  EC50: 5.47 µM (active)
[7]
  EC50: > 150 µM (not active)
[8]
  EC50: 5.6 µM (active)

## Cc1ccc(Cn2cccc(NC(=O)NCc3ccccc3)c2=O)cc1
[1]; read-out: AC50
  AC50: 5.01 µM (inconclusive)
[2]
  AC50: 14.1 µM (inconclusive)

## COc1ccc(Oc2nc(C(F)(F)F)nc3ccccc23)cc1
[6]
  EC50: 29.1 µM (active)
[7]
  EC50: 46.8 µM (active)
[8]
  EC50: > 150 µM (not active)

## Cc1cc(N2CCOCC2)nc2ccc(NC(=O)CCC(=O)N3CCN(c4ccc(F)cc4)CC3)cc12
[5]
  CC50: > 12.5 µM (active)

## CCOCCCN=C(S)NCCNc1nc2c(C)cccc2cc1C#N
[3]
  EC50: 2.73 µM (active)
[4]
  EC50: > 60 µM (not active)

## O=C(CCC(=O)Nc1ccccc1)NNC(=O)c1cccs1
[1]; read-out: AC50
  AC50: 39.8 µM (inconclusive)
[2]
  AC50: 31.6 µM (inconclusive)

## C=CCn1c(SCc2cc(=O)n3ccsc3n2)nc2scc(C3CC3)c2c1=O
[5]
  CC50: 33.1 µM (active)

## Cc1cnn(-c2nc(-c3ccccc3)cc(-c3ccccc3)n2)c1
[6]
  EC50: 9.49 µM (active)
[7]
  EC50: 27.2 µM (active)
[8]
  EC50: > 150 µM (not active)

## CCCCCSc1nc2c(c(=O)[nH]c(=O)n2C)n1C
[5]
  CC50: > 50 µM (active)

## Cc1ccc2nc(O)c(CN(CCCN(C)C)C(S)=NCCc3ccccc3)cc2c1
[3]
  EC50: 0.409 µM (active)
[4]
  EC50: > 60 µM (not active)

## CCN(CC)CCN(C)C(=O)CCc1nnc(-c2ccc(C)s2)o1
[3]
  EC50: 1.35 µM (active)
[4]
  EC50: > 60 µM (not active)

## O=C(Nc1cccc(-c2csc(Nc3ccc(Cl)cc3)n2)c1)c1ccccc1
[6]
  EC50: 4.01 µM (active)
[7]
  EC50: > 150 µM (not active)
[5]
  CC50: 10.3 µM (active)
[8]
  EC50: 5.66 µM (active)

## CCC(C(=O)NC(C)CCc1ccccc1)n1nc(C)n2c(cc3occc32)c1=O (configuration not stated)
[5]
  CC50: 39.2 µM (active)

## O=C(Nc1nc(-c2ccccn2)cs1)C1CC1
[6]
  EC50: > 150 µM (not active)
[7]
  EC50: > 150 µM (not active)
[8]
  EC50: > 150 µM (not active)

## CN1CCC(OC(=O)c2ccccc2Cl)CC1
[3]
  EC50: 0.178 µM (active)
[4]
  EC50: 10.5 µM (active)

## CC1=C(C#N)C(NC(=O)C2CCCCC2)(C(F)(F)F)C(=O)N1 (configuration not stated)
[1]; read-out: AC50
  AC50: 28.2 µM (inconclusive)
[2]
  AC50: 7.94 µM (inconclusive)

## Sc1nnc(-c2cccs2)n1/N=C/c1cn(-c2ccccc2)nc1-c1ccccc1
[6]
  EC50: 6.85 µM (active)
[7]
  EC50: > 150 µM (not active)
[8]
  EC50: 71.7 µM (active)

## NC(=S)N/N=C\c1c(OCc2ccccc2Cl)ccc2ccccc12
[6]
  EC50: 2.39 µM (active)
[7]
  EC50: > 150 µM (not active)
[8]
  EC50: > 150 µM (not active)

## FC(F)(F)c1ccccc1/C=N/n1c(S)nnc1COc1ccccc1
[5]
  CC50: 32.1 µM (active)

## COC(=O)[C@@H]1CC[C@H](C)[C@@H](c2ccc(C)cc2)N1C(=O)c1ccc(/C=N/O[C@@H](C)c2cn([C@H](CO)Cc3ccccc3)nn2)cc1
[3]
  EC50: 0.891 µM (active)
[4]
  EC50: > 60 µM (inconclusive)

## Cn1c[n+](C)cc1/C=N/O
[1]; read-out: AC50
  AC50: 8.91 µM (inconclusive)

## C=CCNC(=O)O/N=C/c1csc([N+](=O)[O-])c1
[3]
  EC50: 1.93 µM (active)
[4]
  EC50: > 60 µM (not active)

## COc1ccc(CCNC=C2C(=O)CC(C)(C)CC2=O)cc1
[1]; read-out: AC50
  AC50: 28.2 µM (inconclusive)
[2]
  AC50: 12.6 µM (inconclusive)

## Cn1c(=O)c2[nH]c(-c3ccc(S(=O)(=O)O)cc3)nc2n(C)c1=O
[1]
  AC50: inconclusive

## O=C(N[C@H](CO)[C@H](O)c1ccc([N+](=O)[O-])cc1)C(Cl)Cl [CHLORAMPHENICOL]
[6]
  EC50: 1.84 µM (active)
[8]
  EC50: 2.55 µM (active)

## CN1C(C(=O)Nc2ccccn2)=C(O)c2sccc2S1(=O)=O [TENOXICAM]
[2]
  AC50: 2.51 µM (inconclusive)
